From ChEMBL document CHEMBL4002566, “S-substituted 3,5-dinitrophenyl 1,3,4-oxadiazole-2-thiols and tetrazole-5-thiols as highly efficient antitubercular agents” (Eur J Med Chem, 2017) come the findings set out here.

Values after ≈ are worked out from the molar mass of the structure shown. A value given as a limit tells only on which side of the number the result lay.

Common to all, as to type: functional
Assay [1] has as its system Mycobacterium kansasii. Kind of assay: Antimycobacterial activity against Mycobacterium kansasii CNCTC My 235/80 after 7 days by micromethod. The following applies: CNCTC My 235/80, 168 h.
Assay [2] relates to Mycobacterium kansasii. Kind of assay: Antimycobacterial activity against Mycobacterium kansasii 6509/96 clinical isolate after 7 days by micromethod. The following applies: 6509/96, 168 h.
The test system of assay [3] is Mycobacterium kansasii. Nature of the assay: Antimycobacterial activity against Mycobacterium kansasii CNCTC My 235/80 after 21 days by micromethod. The note with it: CNCTC My 235/80, 504 h.
Assay [4] concerns Mycobacterium avium. Kind of assay: Antimycobacterial activity against Mycobacterium avium CNCTC My 330/88 after 21 days by micromethod. The following applies: CNCTC My 330/88, 504 h.
The test system of assay [5] is Mycobacterium kansasii. Kind of assay: Antimycobacterial activity against Mycobacterium kansasii 6509/96 clinical isolate after 21 days by micromethod. The following applies: 6509/96, 504 h.
The test system of assay [6] is Mycobacterium kansasii. Nature of the assay: Antimycobacterial activity against Mycobacterium kansasii 6509/96 clinical isolate after 14 days by micromethod. The note with it: 6509/96, 336 h.
Assay [7] relates to Mycobacterium tuberculosis. Nature of the assay: Antimycobacterial activity against Mycobacterium tuberculosis CNCTC My 331/88 after 21 days by micromethod. The following applies: CNCTC My 331/88, 504 h.
The test system of assay [8] is Mycobacterium kansasii. Nature of the assay: Antimycobacterial activity against Mycobacterium kansasii CNCTC My 235/80 after 14 days by micromethod. The following applies: CNCTC My 235/80, 336 h.
Assay [9] deals with Mycobacterium tuberculosis. Kind of assay: Antimycobacterial activity against Mycobacterium tuberculosis CNCTC My 331/88 after 14 days by micromethod. The following applies: CNCTC My 331/88, 336 h.
Assay [10] deals with Mycobacterium avium. Kind of assay: Antimycobacterial activity against Mycobacterium avium CNCTC My 330/88 after 14 days by micromethod. The note with it: CNCTC My 330/88, 336 h.

For the compound `COc1ccc(CSc2nnc(-c3cc([N+](=O)[O-])cc(C(F)(F)F)c3)o2)cc1`, the MIC in the assay on Mycobacterium kansasii [1] was 2 µM (≈ 0.823 µg/mL); with Mycobacterium kansasii [2], 1 µM (≈ 0.411 µg/mL); in the assay with Mycobacterium kansasii [3], 4 µM (≈ 1.65 µg/mL); against Mycobacterium avium [4] it was above 250 µM; with Mycobacterium kansasii [5], 2 µM (≈ 0.823 µg/mL); in the assay on Mycobacterium kansasii [6], 2 µM (≈ 0.823 µg/mL). Moreover, the MIC was 0.5 µM (≈ 0.206 µg/mL) in assay [7], 4 µM (≈ 1.65 µg/mL) in the assay on Mycobacterium kansasii [8], 0.5 µM (≈ 0.206 µg/mL) in assay [9] and above 250 µM against Mycobacterium avium [10].
Consider `COc1ccc(CSc2nnc(-c3cc(N)cc([N+](=O)[O-])c3)o2)cc1`, for which the MIC in the assay with Mycobacterium kansasii [1], with Mycobacterium kansasii [2], in the assay on Mycobacterium kansasii [3], in the assay on Mycobacterium avium [4], in the assay on Mycobacterium kansasii [5] and in the assay on Mycobacterium kansasii [6] was 250 µM (≈ 89.6 µg/mL) each time. Moreover, the MIC in assay [7] stood at 125 µM (≈ 44.8 µg/mL); in the assay with Mycobacterium kansasii [8], 250 µM (≈ 89.6 µg/mL); in [9], 125 µM (≈ 44.8 µg/mL); in the assay on Mycobacterium avium [10], 250 µM (≈ 89.6 µg/mL).
As for `O=[N+]([O-])c1cc(-c2nnc(S)o2)cc([N+](=O)[O-])c1`, the MIC in the assay on Mycobacterium kansasii [1], in the assay on Mycobacterium kansasii [2], with Mycobacterium kansasii [3], against Mycobacterium avium [4], against Mycobacterium kansasii [5] and in the assay on Mycobacterium kansasii [6] was 125 µM (≈ 33.5 µg/mL) throughout. The MIC in [7] was found to be 62 µM (≈ 16.6 µg/mL); in the assay on Mycobacterium kansasii [8], 125 µM (≈ 33.5 µg/mL); in [9] it was 62 µM (≈ 16.6 µg/mL); with Mycobacterium avium [10], 62 µM (≈ 16.6 µg/mL).
As for `O=[N+]([O-])c1cc(-c2nnc(SCc3ccc(Cl)cc3)o2)cc(C(F)(F)F)c1`, the MIC against Mycobacterium kansasii [1] was 1 µM (≈ 0.416 µg/mL); in the assay with Mycobacterium kansasii [2], 1 µM (≈ 0.416 µg/mL); against Mycobacterium kansasii [3], 1 µM (≈ 0.416 µg/mL); against Mycobacterium avium [4] it was above 250 µM; against Mycobacterium kansasii [5], 1 µM (≈ 0.416 µg/mL); against Mycobacterium kansasii [6] it was 1 µM (≈ 0.416 µg/mL). For the same compound, the minimal inhibitory concentration (MIC) in assay [7] is 0.5 µM (≈ 0.208 µg/mL); in the assay on Mycobacterium kansasii [8] it was 1 µM (≈ 0.416 µg/mL); in assay [9], 0.5 µM (≈ 0.208 µg/mL); in the assay with Mycobacterium avium [10] it was above 250 µM.
Take `CC(=O)Nc1cc(-c2nnc(SCc3ccc([N+](=O)[O-])cc3)o2)cc([N+](=O)[O-])c1`: the MIC in the assay with Mycobacterium kansasii [1], against Mycobacterium kansasii [2], against Mycobacterium kansasii [3], with Mycobacterium avium [4], with Mycobacterium kansasii [5] and in the assay with Mycobacterium kansasii [6] was above 500 µM each time. The minimum inhibitory concentration (MIC) (in [7]; in the assay with Mycobacterium kansasii [8]; in assay [9]; against Mycobacterium avium [10]) was above 500 µM each time.
For the compound `O=[N+]([O-])c1cc(-c2nnc(SCc3ccc(Cl)cc3Cl)o2)cc([N+](=O)[O-])c1`, the MIC in the assay with Mycobacterium kansasii [1] came out at 0.03 µM (≈ 0.0128 µg/mL); in the assay on Mycobacterium kansasii [2] it was 0.03 µM (≈ 0.0128 µg/mL); in the assay with Mycobacterium kansasii [3], 0.06 µM (≈ 0.0256 µg/mL); with Mycobacterium avium [4], 250 µM (≈ 107 µg/mL); in the assay on Mycobacterium kansasii [5], 0.03 µM (≈ 0.0128 µg/mL); with Mycobacterium kansasii [6] it was 0.03 µM (≈ 0.0128 µg/mL). Also, the minimal inhibitory concentration (MIC) was 0.03 µM (≈ 0.0128 µg/mL) in assay [7], 0.06 µM (≈ 0.0256 µg/mL) against Mycobacterium kansasii [8], 0.03 µM (≈ 0.0128 µg/mL) in assay [9] and 250 µM (≈ 107 µg/mL) in the assay with Mycobacterium avium [10].
`CCCCCSc1nnc(-c2cc([N+](=O)[O-])cc([N+](=O)[O-])c2)o1`: the minimum inhibitory concentration (MIC) was 0.03 µM (≈ 0.0102 µg/mL) in the assay on Mycobacterium kansasii [1]; 0.03 µM (≈ 0.0102 µg/mL) against Mycobacterium kansasii [2]; 0.03 µM (≈ 0.0102 µg/mL) in the assay with Mycobacterium kansasii [3]; 32 µM (≈ 10.8 µg/mL) with Mycobacterium avium [4]; 0.03 µM (≈ 0.0102 µg/mL) with Mycobacterium kansasii [5]; 0.03 µM (≈ 0.0102 µg/mL) with Mycobacterium kansasii [6]. In addition, the minimum inhibitory concentration (MIC) in assay [7] was 0.03 µM (≈ 0.0102 µg/mL); with Mycobacterium kansasii [8], 0.03 µM (≈ 0.0102 µg/mL); in assay [9] it was 0.03 µM (≈ 0.0102 µg/mL); in the assay on Mycobacterium avium [10] it was 16 µM (≈ 5.41 µg/mL).
Take `CSc1nnc(-c2cc([N+](=O)[O-])cc([N+](=O)[O-])c2)o1`: the MIC is 8 µM (≈ 2.26 µg/mL) in the assay on Mycobacterium kansasii [1]; 8 µM (≈ 2.26 µg/mL) against Mycobacterium kansasii [2]; 32 µM (≈ 9.03 µg/mL) against Mycobacterium kansasii [3]; 16 µM (≈ 4.52 µg/mL) against Mycobacterium avium [4]; 16 µM (≈ 4.52 µg/mL) in the assay with Mycobacterium kansasii [5]; 8 µM (≈ 2.26 µg/mL) against Mycobacterium kansasii [6]. Also, the MIC in assay [7] amounted to 8 µM (≈ 2.26 µg/mL); against Mycobacterium kansasii [8], 16 µM (≈ 4.52 µg/mL); in assay [9] it was 4 µM (≈ 1.13 µg/mL); with Mycobacterium avium [10], 16 µM (≈ 4.52 µg/mL).
Take `NNC(=O)c1ccncc1` [ISONIAZID]: the minimal inhibitory concentration (MIC) against Mycobacterium kansasii [1] is above 250 µM; in the assay on Mycobacterium kansasii [2], 4 µM (≈ 0.549 µg/mL); against Mycobacterium avium [4], above 250 µM; against Mycobacterium kansasii [5], 8 µM (≈ 1.1 µg/mL); against Mycobacterium kansasii [6], 4 µM (≈ 0.549 µg/mL); in [7], 1 µM (≈ 0.137 µg/mL). In addition, the results for the MIC (in the assay with Mycobacterium kansasii [8]; in [9]; in the assay with Mycobacterium avium [10]) were above 250 µM, 0.5 µM (≈ 0.0686 µg/mL) and above 250 µM, respectively.

By MIC is commonly meant the smallest concentration in the dilution series that meets the test's criterion for growth inhibition.
